Measurements published in patent EP2724723A1, “Tegaserod for use in the treatment of nerve injuries” (Universitätsklinikum Hamburg-Eppendorf, priority 2012, dated 2014).

What was measured:
[1] = system: regenerated femoral nerves; experiment: Histology of the regenerated femoral nerve; format: in vivo, C57BL/6J mice; details: 15 weeks; for myelinated axons: vehicle control 78%; for average number of axons within regenerated nerves: vehicle control 432, unsevered 608
Procedure: Tegaserod was evaluated in a 2 mm femoral nerve defect of 12-week old C57BL/6J mice as previously described in Mehanna et al. (2009), see above. Briefly, mice were anesthetized and the femoral nerve of the left rear leg exposed. The nerve was bis-sected 3 mm proximal to the branching of the saphenous and motor branches, and the nerve ends were sutured 0.5 mm into a 3 mm polyethylene conduits with 0.58 mm inner diameter (Becton Dickinson), leaving an overall gap length of 2 mm. Conduits were filled with PuraMatrix peptide hydrogel (Becton Dickinson 354250) using 2x PBS as the gelation stimulant. Tegaserod was dissolved in the 2x PBS at concentrations of 500 nM and 5,000 nM, resulting in final concentrations of 250 nM and 2,500 nM once the PBS was combined 1:1 v/v with the PuraMatrix.
At the end of the recovery period, femoral nerves were fixed and histology was performed to assess nerve morphology within the regenerated region 1 mm into the 2 mm gap. Animals were perfused with 4% paraformadehyde and explanted nerves were post-fixed in osmium tetroxide and embedded in resin. One and 2 µm thick sections were cut into the center of the regenerated nerve and sections were stained with 1% toluidine blue and 1% borax. Sections were imaged with a Zeiss Axiocam, using 20x, 40x, and 100x objectives and AxioVision imaging software. ImageJ software was used to calculate total nerve area, number of axons, % of myelinated axons, and g-ratio as described Mehanna et al. (2009), see above.

[2] = system: murine cerebellar granule neurons (cGNs), Schwann cells, and motoneurons; experiment: In vitro neurite/process outgrowth, statements covering all cell types; format: cell-based, C57BL/6J mice
Procedure: Primary cultures of cerebellar neurons or Schwann cells were prepared from cerebellum or dorsal root ganglia of 7-day-old C57BL/6J mice as described in Mehanna et al. (2009), Brain, 132 (Pt 6): 1449-62 and Loers et al. (2005), J. Neurochem., 92(6): 1463-76. Motoneurons were prepared from E14 C57BL/6J mice as described in Simova et al. (2006), Ann. Neurol., 60(4): 430-437. In brief, 48-well plates were coated with 0.01% poly-L-lysine (PLL) or poly-L-ornithine (PLO) overnight at 4°C, washed twice with water and air-dried. Directly before use, plates were washed twice with PBS, and Schwann cells, cerebellar neurons (PLL) or motoneurons (PLO) were seeded at a density of 1.25 x 10^4 (Schwann cells and motoneurons) or 2.5 x 10^4 cells (cerebellar neurons) per well in 250 µl of corresponding serum-free culture medium. Soluble organic compounds were added to the culture 1 h after seeding in increasing concentrations. After maintenance for 24 h at 37°C, cells were fixed with 2.5% glutaraldehyde and stained with 1% methylene blue/toluidine blue in 1% borax. Morphological quantification of neurite or process lengths was performed as described in Mehanna et al. (2009), see above. Schwann cell processes and neurites of cerebellar neurons with a length of at least one cell body diameter were counted and total neurite or process length per cell was determined by counting 50 cells in each of two wells per experiment. At least three independent experiments were performed for each culture. Also, the activity of tegaserod with the PSA peptide mimic and the bacterial PSA analogue, colominic acid, on neurite and process extension experiments was compared.

anti-PSA antibody 735 = experiment: Competition ELISA: antibody 735 binding to immobilized PSA mimicking peptide
Procedure: To confirm that the compounds identified in the screening from Example 1 are indeed PSA mimetics, binding of tegaserod maleate ((E)-but-2-enedioic acid; 1-[[(Z)-(5-methoxyindol-3-ylidene) methyl]amino]-2-pentylguanidine; hereafter termed tegaserod) and the control compound nitrendipine (5-O-ethyl 3-O-methyl-2,6-dimethyl-4-(3-nitrophenyl)-1,4-dihydropyridine-3,5-dicarboxylate) to the PSA antibody 735 was analyzed by competition ELISA. 384-well flat bottom microtiter plates (Corning Life Sciences) were coated in triplicates with 25 µl of PSA mimicking peptide coupled to catalase (3 µg/ml) or PBS alone at 4°C overnight. All following steps were carried out at room temperature. After blocking with 1% BSA in PBS for 1 h, the wells were washed three times for 5 min with PBS containing 0.05% Tween-20 (PBST). Wells were incubated with increasing concentrations of tegaserod and nitrendipine, pre-incubated with anti-PSA antibody 735 (0.1 µg/ml) for 1 h. […] The reaction was stopped by addition of 50 µl 2.5 M H2SO4 and quantified using an ELISA reader (µQuant, Bio-TEK, Winooski, VT, USA) at 490 nm and the software KCjunior (Bio-TEK).

[3] = system: 2 mm femoral nerve defect; experiment: Femoral nerve regeneration: locomotor recovery (FBA, PLR, recovery index); format: in vivo, C57BL/6J mice; details: for average FBA (foot base angle): end of the 15-week study, control group 93 degrees
From the text: Briefly, mice were anesthetized and the femoral nerve of the left rear leg exposed. The nerve was bis-sected 3 mm proximal to the branching of the saphenous and motor branches, and the nerve ends were sutured 0.5 mm into a 3 mm polyethylene conduits with 0.58 mm inner diameter (Becton Dickinson), leaving an overall gap length of 2 mm.
The FBA measures the angle between the hind paw and a beam as the mouse is pushing and bearing weight with the foot of the injured limb.
FBA is governed largely by the quadriceps muscle, the major muscular innervation target of the femoral nerve. Mice were trained to walk on a beam for 2 weeks prior to surgery and single frame video motion analysis (Simi Reality Motion Systems, Simi Sportsplayer) was used to quantify the angle between the beam and the foot when the toes from the left leg are fully extended.
As a complement to assessment of the FBA that measures a weight-bearing reflexive movement, the protraction limb ratio (PLR) is indicative of voluntary movement of the hind limb. […] Mice are suspended by the tail above a pencil and allowed to grasp the pencil. The PLR is measured by dividing the relative length that the uninjured hind leg extends to the pencil by the length that the injured hind limb extends.
To account for any variability between animals, an index is calculated that takes into account the initial FBA and PLR of animals prior to surgery. The recovery index is calculated by the equation: RI= (Xday y-Xday 1wk)/(Xday 0-Xday 7) x 100, where Xday0 is the measurement before injury, Xday 1wk is the measurement one week after injury, and Xday y is the measurement at the study endpoint. An RI value 100 indicates complete recovery of function.

SMILES: [H]/N=C(/NCCCCC)N/N=C/c1c[nH]c2ccc(OC)cc12 [tegaserod, (E)-but-2-enedioic acid; 1-[[(Z)-(5-methoxyindol-3-ylidene)methyl]amino]-2-pentylguanidine]
- myelinated axons ([1]; 250 nM): 88%
- average number of axons within regenerated nerves ([1]; 250 nM): 589 axons
- myelinated axons ([1]; 2,500 nM): 83%
- average number of axons within regenerated nerves ([1]; 2,500 nM): 434 axons
- minimal effective concentration ([2]; Mus musculus, Neuron, 24 h, dose-response curve, Figure 2A, read-out: concentration at which an effect on neurite and process extension was shown): 0.001 µM
- concentration of optimal effect on neurite and process extension ([2]; all cell types, Figure 2A): 100 nM
- concentration of maximal stimulatory effects ([2]; neurite and process extension of neurons and Schwann cells): 10 to 250 nM
- effect of overdosing / higher concentrations (in words) ([2]; neurons and Schwann cells): the stimulatory effect was reduced or even abolished
- times more effective than colominic acid in stimulating process formation ([2]; neurons and Schwann cells): about 20 times
- times more effective than the PSA mimicking peptide in stimulating process formation ([2]; neurons and Schwann cells): about 200 times
- concentration of maximal inhibition of binding of mAb 735 with the PSA peptide mimic (anti-PSA antibody 735; competition ELISA, Figure 1A): approximately 100 nM
- inhibition of binding of mAb 735 with the PSA peptide mimic (in words) (anti-PSA antibody 735; increasing concentrations, pre-incubated with antibody 735 (0.1 µg/ml) for 1 h): inhibit binding of mAb 735 with the PSA peptide mimic in a dose dependent manner
- time after nerve injury at which sustained improvement of the FBA first became apparent ([3]; 250 nM in hydrogel conduit): 6 weeks
- time at which FBA improvement became statistically significant from the vehicle control group ([3]; 250 nM in hydrogel conduit): 10 weeks
- average FBA (foot base angle) ([3]; 250 nM in hydrogel conduit): 82 degrees
- average recovery index (RI) for the FBA ([3]; 250 nM, 15 weeks, vehicle control 37%): 62%
- time to return to pre-surgery PLR (protraction limb ratio) ([3]; 250 nM, vehicle control 8 weeks): ≤ 6 weeks
- PLR versus other groups (in words) ([3]; 2,500 nM): remained consistently higher than the other two groups
- FBA recovery versus vehicle control (in words) ([3]; 2,500 nM in hydrogel conduit): did not show statistically significant difference from vehicle control
- average FBA (foot base angle) ([3]; 2,500 nM in hydrogel conduit): 87 degrees
- recovery index (RI) for the FBA ([3]; 2,500 nM, 15 weeks, vehicle control 37%, considerable variation): 51%
- RI of the PLR reached by the majority of mice ([3]; 2,500 nM, a single mouse did not recover): 100%
